# According to patent US12391692B2, “Spiro ring-containing quinazoline compound” (WIGEN BIOMEDICINE TECHNOLOGY (SHANGHAI) CO., LTD., priority 2020, dated 2025):
# Legend:
# pERK level in H358 cells = test: pERK and ERK protein content assay in H358 cells (ELISA); type: cell-based; conditions: Homo sapiens, NCI-H358, pERK/ERK ratio vs DMSO group, compound 1 μM, 24 h, read-out: Inhibition rate (%)
# Description: H358 cells were seeded in a 24-well plate. After one day of growth, a test compound (at a concentration of 1 μM) was added. After 24 h of action of the compound, the cells were lysed, and the cell lysate was transferred to a 96-well ELISA plate. The levels of pERK and ERK in the lysate were measured using an ELISA kit (abcam 176660). The ratio of pERK to ERK was calculated and compared with that of the DMSO group, and the percentage of inhibition of pERK activity by the compound was calculated.
# H358 cells = test: Antiproliferative activity against H358 cells (Cell Titer Glow, ultra-low attachment plate); type: cell-based; conditions: Homo sapiens, NCI-H358, 72 h, three days after addition of compound
# Description: 2500 H358 cells were seeded in a 96-well ultra-low attachment plate (corning, 7007). After one day of growth, a serially diluted compound (a maximum concentration of 5 μM, 5-fold dilution, a total of five doses) was added. Three days after the addition of the compound, Cell Titer Glow (Promega, G9681) was added to evaluate pellet growth, and the IC50 value was calculated.
IC50 (H358 cells) [nM],Compound,inhibition at 1 µM (pERK level in H358 cells) [%]
< 300,C=CC(=O)N1CC2(CCN(c3nc(N4CC5(C=CCN5CC)C4)nc4c(OCC(F)(F)F)c(-c5c(C)ccc6[nH]ncc56)c(C5CC5)cc34)CC2)C1 [Compound 128],> 90
< 300,C=CC(=O)N1CC2(CCN(c3nc(N4CC(N5CC6(CSC6)C5)C4)nc4c(OCC(F)(F)F)c(-c5c(C)ccc6[nH]ncc56)c(C5CC5)cc34)CC2)C1 [Compound 31],> 90
< 300,C=CC(=O)N1CC2(CCN(c3nc(N4CCC5(CCN5CCOC)C4)nc4c(OCC(F)(F)F)c(-c5c(C)ccc6[nH]ncc56)c(C5CC5)cc34)CC2)C1 (stereo not shown) [Compound 78],> 90
300 to 1000,C=CC(=O)N1CC2(CCN(c3nc(N4CC(N(C)CC#N)C4)nc4c(OCC(F)(F)F)c(-c5c(C)ccc6[nH]ncc56)c(C5CC5)cc34)CC2)C1 [Compound 20],50 to 90
300 to 1000,C=CC(=O)N1CC2(CCN(c3nc(N4CC(N5CC6(CC6)C5)C4)nc4c(OCC(F)(F)F)c(-c5cc(O)cc6ccccc56)c(C5CC5)cc34)CC2)C1 [Compound 111],> 90
< 300,C=CC(=O)N1CC2(CCN(c3nc(N4CC(C)(CN5CCCC5)C4)nc4c(OCC(F)(F)F)c(-c5c(C)ccc6[nH]ncc56)c(C5CC5)cc34)CC2)C1 [Compound 64],> 90
< 300,C=CC(=O)N1CC2(CCN(c3nc(N4CC(N(C)CCCO)C4)nc4c(OCC(F)(F)F)c(-c5c(C)ccc6[nH]ncc56)c(C5CC5)cc34)CC2)C1 [Compound 23],> 90
< 300,C=CC(=O)N1CC2(CCN(c3nc(N4CC5(CC(OC)CN5CC)C4)nc4c(OCC(F)(F)F)c(-c5c(C)ccc6[nH]ncc56)c(C5CC5)cc34)CC2)C1 (stereo not shown) [Compound 124],> 90
< 300,C=CC(=O)N1CC2(CCN(c3nc(N4CC5(CCCCN5CCOC)C4)nc4c(OCC(F)(F)F)c(-c5c(C)ccc6[nH]ncc56)c(C5CC5)cc34)CC2)C1 [Compound 76],> 90
300 to 1000,C=CC(=O)N1CC2(CCN(c3nc(N4CC(CN5CCOCC5)C4)nc4c(OCC(F)(F)F)c(-c5c(C)ccc6[nH]ncc56)c(C5CC5)cc34)CC2)C1 [Compound 8],50 to 90
300 to 1000,C=CC(=O)N1CC2(CCN(c3nc(N4CC(CO)C4)nc4c(OCC(F)(F)F)c(-c5c(C)ccc6[nH]ncc56)c(C5CC5)cc34)CC2)C1 [Compound 3],50 to 90
< 300,C=CC(=O)N1CC2(CCN(c3nc(N4CCC(OC5CN(C)C5)CC4)nc4c(OCC(F)(F)F)c(-c5c(C)ccc6[nH]ncc56)c(C5CC5)cc34)CC2)C1 [Compound 16],> 90
< 300,C=CC(=O)N1CC2(CCN(c3nc(N4CC5(C4)CC(F)(F)CN5C)nc4c(OCC(F)(F)F)c(-c5c(C)ccc6[nH]ncc56)c(C5CC5)cc34)CC2)C1 [Compound 129],> 90
< 300,C=CC(=O)N1CC2(CCN(c3nc(N4CC(N5CC6(CCC6)C5)C4)nc4c(OCC(F)(F)F)c(-c5c(C)ccc6[nH]ncc56)c(C5CC5)cc34)CC2)C1 [Compound 29],> 90
< 300,C=CC(=O)N1CC2(CCN(c3nc(N4CC(N5CC6(CC6)C5)C4)nc4c(O[C@@H](C)C(F)(F)F)c(-c5c(C)ccc6[nH]ncc56)c(C5CC5)cc34)CC2)C1 [Compound 99],> 90
< 300,C=CC(=O)N1CC2(CCN(c3nc(N4CC5(CCCN5C5CC5)C4)nc4c(OCC(F)(F)F)c(-c5c(C)ccc6[nH]ncc56)c(C5CC5)cc34)CC2)C1 [Compound 120],> 90
< 300,C=CC(=O)N1CC2(CCN(c3nc(N4CCC(CC#N)(N5CCC5)CC4)nc4c(OCC(F)(F)F)c(-c5c(C)ccc6[nH]ncc56)c(C5CC5)cc34)CC2)C1 [Compound 58],> 90
< 300,C=CC(=O)N1CC2(CCN(c3nc(N4CC5(CCCN5C)C4)nc4c(OCC(F)(F)F)c(-c5c(C)ccc6[nH]ncc56)c(C5CC5)cc34)CC2)C1 [Compound 73],> 90
> 1000,C=CC(=O)N1CC2(CCN(c3nc(N4CC(n5cccn5)C4)nc4c(OCC(F)(F)F)c(-c5c(C)ccc6[nH]ncc56)c(C5CC5)cc34)CC2)C1 [Compound 40],50 to 90
< 300,C=CC(=O)N1CC2(CCN(c3nc(N4CC(N(CC)CCO)C4)nc4c(OCC(F)(F)F)c(-c5c(C)ccc6[nH]ncc56)c(C5CC5)cc34)CC2)C1 [Compound 22],> 90
< 300,C=CC(=O)N1CC2(CCN(c3nc(N4CCC5(CCCN5C)CC4)nc4c(OCC(F)(F)F)c(-c5c(C)ccc6[nH]ncc56)c(C5CC5)cc34)CC2)C1 [Compound 79],> 90

IC50 (H358 cells) [nM],Compound,inhibition at 1 µM (pERK level in H358 cells) [%]
< 300,C=CC(=O)N1CC2(CCN(c3nc(O[C@H]4C[C@@H](N5CC6(CC6)C5)C4)nc4c(OCC(F)(F)F)c(-c5c(C)ccc6[nH]ncc56)c(C5CC5)cc34)CC2)C1 [Compound 93],> 90
< 300,C=CC(=O)N1CC2(CCN(c3nc(N4CC(COC5CN(C)C5)C4)nc4c(OCC(F)(F)F)c(-c5c(C)ccc6[nH]ncc56)c(C5CC5)cc34)CC2)C1 [Compound 11],> 90
< 300,C=CC(=O)N1CC2(CCN(c3nc(N4CC(C)(N5CCCC5)C4)nc4c(OCC(F)(F)F)c(-c5c(C)ccc6[nH]ncc56)c(C5CC5)cc34)CC2)C1 [Compound 61],> 90
< 300,C=CC(=O)N1CC2(CCN(c3nc(N4CC(N(CC)CCCO)C4)nc4c(OCC(F)(F)F)c(-c5c(C)ccc6[nH]ncc56)c(C5CC5)cc34)CC2)C1 [Compound 24],> 90
300 to 1000,C=CC(=O)N1CC2(CCN(c3nc(N4CC(S(=O)(=O)N5CC(N(C)C)C5)C4)nc4c(OCC(F)(F)F)c(-c5c(C)ccc6[nH]ncc56)c(C5CC5)cc34)CC2)C1 [Compound 50],50 to 90
< 300,C=CC(=O)N1CC2(CCN(c3nc(N4CC5(CCCN5C(C)C)C4)nc4c(OCC(F)(F)F)c(-c5c(C)ccc6[nH]ncc56)c(C5CC5)cc34)CC2)C1 [Compound 117],> 90
< 300,C=CC(=O)N1CC2(CCN(c3nc(N4CC5(CCN5C5COC5)C4)nc4c(OCC(F)(F)F)c(-c5c(C)ccc6[nH]ncc56)c(C5CC5)cc34)CC2)C1 [Compound 71],> 90
< 300,C=CC(=O)N1CC2(CCN(c3nc(N4CC(N5CC6(CC6)C5)C4)nc4c(OCC(F)(F)F)c(-c5c(F)ccc6[nH]cnc56)c(C5CC5)cc34)CC2)C1 [Compound 108],> 90
< 300,C=CC(=O)N1CC2(CCN(c3nc(O[C@H]4C[C@@H](N(C)C)C4)nc4c(OCC(F)(F)F)c(-c5c(C)ccc6[nH]ncc56)c(C5CC5)cc34)CC2)C1 [Compound 85],> 90
< 300,C=CC(=O)N1CC2(CCN(c3nc(N4CC5(CC(O)CN5CC)C4)nc4c(OCC(F)(F)F)c(-c5c(C)ccc6[nH]ncc56)c(C5CC5)cc34)CC2)C1 (stereo not shown) [Compound 122],> 90
< 300,C=CC(=O)N1CC2(CCN(c3nc(N4CC(C)(CN(C)C)C4)nc4c(OCC(F)(F)F)c(-c5c(C)ccc6[nH]ncc56)c(C5CC5)cc34)CC2)C1 [Compound 62],> 90
< 300,C=CC(=O)N1CC2(CCN(c3nc(N4CC(N5CC6(CC6)C5)C4)nc4c(OCC)c(-c5c(C)ccc6[nH]ncc56)c(C5CC5)cc34)CC2)C1 [Compound 97],> 90
< 300,C=CC(=O)N1CC2(CCN(c3nc(N4CC(COC)C4)nc4c(OCC(F)(F)F)c(-c5c(C)ccc6[nH]ncc56)c(C5CC5)cc34)CC2)C1 [Compound 9],> 90
< 300,C=CC(=O)N1CC2(CCN(c3nc(N4CCC(N5CC6(CC6)C5)C4)nc4c(OCC(F)(F)F)c(-c5c(C)ccc6[nH]ncc56)c(C5CC5)cc34)CC2)C1 (stereo not shown) [Compound 37],> 90
< 300,C=CC(=O)N1CC2(CCN(c3nc(N4CC5(CCN5CCOC)C4)nc4c(OCC(F)(F)F)c(-c5c(C)ccc6[nH]ncc56)c(C5CC5)cc34)CC2)C1 [Compound 72],> 90
< 300,C=CC(=O)N1CC2(CCN(c3nc(N4CC(N5CC6(CC6)C5)C4)nc4c(OCC(F)(F)F)c(-c5c(C)ccc6[nH]nc(C)c56)c(C5CC5)cc34)CC2)C1 [Compound 106],> 90
300 to 1000,C=CC(=O)N1CC2(CCN(c3nc(N4CC(N5CC6(CC6)C5)C4)nc4c(OCC(F)(F)F)c(-c5c(F)cccc5F)c(C5CC5)cc34)CC2)C1 [Compound 113],50 to 90
< 300,C=CC(=O)N1CC2(CCN(c3nc(N4CC(N5CC6(CC6)C5)C4)nc4c(OCC(F)(F)F)c(-c5c(C)c(F)cc6[nH]ncc56)c(C5CC5)cc34)CC2)C1 [Compound 104],> 90
300 to 1000,C=CC(=O)N1CC2(CCN(c3nc(N4CC(N5CC[S+]([O-])CC5)C4)nc4c(OCC(F)(F)F)c(-c5c(C)ccc6[nH]ncc56)c(C5CC5)cc34)CC2)C1 [Compound 26],50 to 90
< 300,C=CC(=O)N1CC2(CCN(c3nc(N4CC(CN5CCCC5)C4)nc4c(OCC(F)(F)F)c(-c5c(C)ccc6[nH]ncc56)c(C5CC5)cc34)CC2)C1 [Compound 7],> 90
